According to ChEMBL document CHEMBL3621181, “Prokineticin Receptor Modulators May Potentially Treat Psychiatric and Neurological Disorders” (ACS Med Chem Lett, 2015):
pIC50: −log10 of the molar value.

Target: Prokineticin receptor 1 (Homo sapiens, UniProt Q8TCW9)
Assay: Antagonist activity at human PKR1 expressed in rat RBL2H3 cells assessed as inhibition of PK1-stimulated intracellular calcium release incubated for 10 mins prior to PK1 stimulation by FLIPR assay
Format: functional, cell-based, RBL-2H3

Chain of Prokineticin receptor 1 (Q8TCW9 whole entry): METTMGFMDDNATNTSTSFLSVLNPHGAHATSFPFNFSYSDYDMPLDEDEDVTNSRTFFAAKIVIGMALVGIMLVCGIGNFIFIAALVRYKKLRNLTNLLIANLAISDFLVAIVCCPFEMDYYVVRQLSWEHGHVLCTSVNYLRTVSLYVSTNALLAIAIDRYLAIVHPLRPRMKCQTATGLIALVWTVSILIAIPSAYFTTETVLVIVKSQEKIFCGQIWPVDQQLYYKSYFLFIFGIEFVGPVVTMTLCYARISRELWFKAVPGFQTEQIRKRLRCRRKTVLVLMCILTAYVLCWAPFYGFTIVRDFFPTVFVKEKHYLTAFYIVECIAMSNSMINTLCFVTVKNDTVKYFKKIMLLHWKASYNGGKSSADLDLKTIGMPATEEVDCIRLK

Row | Structure (SMILES) | pIC50
1 | COC1(c2ncc(Cl)cc2C)CCCN(C(=O)c2cn(C)nc2N)C1 (configuration not stated) | < 5.05
2 | CC(C)n1c(C2CCCN(C(=O)c3ccnc(N(C)C)c3)C2)nc2ccccc21 (configuration not stated) | 6.49
